According to patent publication US4237140A, “Analgesic mixture of nalbuphine and acetaminophen” (E. I. Du Pont de Nemours and Company, priority 1979, dated 1980):
Counter-ions that a name gives are not always drawn.

Test system: phenyl-p-benzoquinone induced writhing in mice
Test: mouse antiphenylquinone writhing test (oral analgesic activity)
Details: for ED50: Mus musculus, po, 5 min; for peak time for analgesia: preliminary experiment, drug alone
Method: Male CF1 mice obtained from Charles River Breeding Laboratories, fasted for 16-22 hours, and weighing 18-22 g at the time of testing are used throughout. All mice are dosed orally with acetaminophen and/or nalbuphine (calculated as the hydrochloride salt) dissolved completely in distilled water containing as vehicle 2% by volume of Tween 80®, a pharmacological dispersant manufactured by Fisher Scientific Company and containing 100% polysorbate 80. A dosing volume of 20 ml/kg is used. All doses are coded and the test is performed under a code not known to the observer.
Mice, intubated with various doses of nalbuphine HCl, acetaminophen, combined doses of nalbuphine.HCl and acetaminophen, or vehicle, are injected intraperitoneally with a challenge dose of phenyl-p-benzoquinone.The phenyl-p-benzoquinone is prepared as a 0.1 mg/ml solution in 5% by volume of ethanol in water; the writhing dose is 1.25 mg/kg injected at the rate of 0.25 ml/20 g. For scoring purposes a "writhe" is indicated by whole body stretching or contraction of the abdomen: mice are observed 10 minutes for the presence or absence of writhing beginning 5 minutes after receiving the phenyl-p-benzoquinone dose. Each mouse is used only once, then discarded.
Initially the time of peak activity is determined separately for each drug in the antiphenylquinone writhing test. Then several doses of each drug alone and in precise nalbuphine.HCl/acetaminophen ratios are given orally at or near the time of peak analgesic effects.
All ED50 values are determined numerically by the moving average method of Thompson (W. F. Thompson: Bacteriological Rev. 11, 115-145, 1947) and 95% confidence limits are calculated according to the method of Litchfield and Wilcoxon (J. T. Litchfield, Jr. and F. Wilcoxon: J. Pharm. Exp. Ther. 96, 99-113, 1949).

Row | SMILES | ED50 | ED50 AT 5 MIN., Acetaminophen (Table 1, oral, acetaminophen component dose (alone or in combination), 95% confidence limits printed on adjacent line) | % MICE BLOCKED (oral, nalbuphine.HCl 0, acetaminophen 29.8 mg/kg) | % MICE BLOCKED (oral, nalbuphine.HCl 0, acetaminophen 59.5 mg/kg) | % MICE BLOCKED (oral, nalbuphine.HCl 0, acetaminophen 238 mg/kg) | peak time for analgesia (oral) | ED50 AT 5 MIN., Nalbuphine . HCl (Table 1, oral, nalbuphine.HCl component dose (alone or in combination), 95% confidence limits printed on adjacent line) | % MICE BLOCKED (oral, nalbuphine.HCl 1.9 mg/kg, acetaminophen 0) | % MICE BLOCKED (oral, nalbuphine.HCl 3.8 mg/kg, acetaminophen 0) | % MICE BLOCKED (oral, nalbuphine.HCl 7.6 mg/kg, acetaminophen 0) | % MICE BLOCKED (oral, nalbuphine.HCl 15.2 mg/kg, acetaminophen 0) | % MICE BLOCKED (oral, nalbuphine.HCl 30.4 mg/kg, acetaminophen 0)
1 | CC(=O)Nc1ccc(O)cc1 [Acetaminophen, N-(4-hydroxyphenyl)acetamide] | 119 mg/kg | 151 mg/kg | 20% | 23% | 55% | 5 min | – | – | – | – | – | –
2 | Oc1ccc2c3c1O[C@H]1[C@@H](O)CC[C@@]4(O)[C@@H](C2)N(CC2CCC2)CC[C@]314 [Nalbuphine . HCl, (-)-17-(cyclobutylmethyl)-4,5α-epoxymorphinan-3,6α, 14-triol] | 7.6 mg/kg | – | – | – | – | 5 min | 8.58 mg/kg | 10% | 23% | 50% | 63% | 90%
